Results reported in patent US20240325321A1, “COMPOSITIONS AND METHODS FOR INHIBITING PLpro PROTEASE ACTIVITY AND FOR PREVENTING AND TREATING SARS-CoV-2 INFECTION” (Arizona Board of Regents on Behalf of the University of …, priority 2022, published 2024).
Like-named read-outs stand apart in the source and are kept apart here.

How the values were obtained:
SARS-CoV-2 [1] = assay: SARS-CoV-2 antiviral assay in Caco2-hACE2 cells; format: cell-based; settings: Severe acute respiratory syndrome coronavirus 2
SARS-CoV-2 [2] = assay: SARS-CoV-2 antiviral assay in Vero E6 cells; format: cell-based; settings: Severe acute respiratory syndrome coronavirus 2, Vero C1008
SARS-CoV-2 [3] = assay: SARS-CoV-2 antiviral assay in Huh7-ACE2 cells; format: cell-based; settings: Severe acute respiratory syndrome coronavirus 2
SARS-CoV-2 PL^pro = SARS-CoV-2 PL^pro (Severe acute respiratory syndrome coronavirus 2, UniProt P0DTD1); assay: biochemical; format: biochemical
in vitro = settings: African green monkey
M^pro = molecular target: T1, M^pro (Severe acute respiratory syndrome coronavirus 2, UniProt P0DTD1); assay: biochemical
T1 construct: the main protease (M^pro)

[4] = Cytotoxicity in Vero E6 cells; settings: African green monkey
[5] = Cytotoxicity in Calu-3 cells; settings: human
[6] = FRET assay, read-out: SARS-CoV-2 PL^pro IC50

| Structure (SMILES) | IC50 (SARS-CoV-2 PL^pro; [6]) | IC50 (SARS-CoV-2 PL^pro) | other results |
| --- | --- | --- | --- |
| Cc1ccc(N)cc1C(=O)N[C@H](C)c1cccc2ccccc12 [GRL0617, reference compound] |  |  | EC50 (SARS-CoV-2 [1]): 25.1 µM; EC50 (SARS-CoV-2 [2]): 74.4 µM; EC50 (SARS-CoV-2 [3]): 20.2 µM |
| C[C@H](c1cccc2ccccc12)N(C)Cc1cnn(C)c1 [ZX-136-3] | 10.1 µM |  |  |
| Cc1cc(O)ccc1CN(C)[C@H](C)c1cccc2ccccc12 [Jun9-87-2] |  |  | SARS-CoV-2 PL^pro inhibition, in words (SARS-CoV-2 PL^pro): highly potent; CC50 (in vitro): 61 µM |
| CCN(Cc1cc(O)ccc1Cl)c1cccc(C)c1C [Jun9-13-5] |  | > 20 µM |  |
| Cc1ccccc1CN(C)Cc1cc(O)ccc1Cl [Jun9-26-2] |  | > 20 µM |  |
| C[C@H](c1cccc2ccccc12)N(C)Cc1cnc2c(O)cccn12 [ZX-136-10] | 14.3 µM |  |  |
| C[C@H](c1cccc2ccccc12)N(C)Cc1ccc(OCC(N)=O)nc1 [Jun9-85-4] | 2.84 µM |  |  |
| C[C@H](c1cccc2ccccc12)N(C)Cc1ccnc(O)c1 [Jun9-84-6] |  | > 20 µM |  |
| C[C@H](c1ccc(Cl)cc1)N(C)Cc1cc(O)ccc1Cl [Jun9-13-4] |  | > 20 µM |  |
| COc1ccc(Cl)c(CN(C)[C@H](C)c2cccc3ccccc23)c1 [Jun9-26-5] |  | > 20 µM |  |
| C[C@H](c1cccc2ccccc12)N(C)Cc1cc(O)ccc1Cl [Jun9-28-6] | 2.66 µM |  | IC50 (M^pro): > 20 µM; EC50 (SARS-CoV-2 [3]): 5.17 µM |
| C[C@H](c1cccc2ccccc12)N(C)Cc1ccc2c(c1)COC2=O [Jun9-85-7] | 6.41 µM |  |  |
| C[C@H](c1cccc2ccccc12)N(C)Cc1n[nH]c2cccc(O)c12 [Jun9-86-7] |  | > 20 µM |  |
| C[C@H](c1cccc2ccccc12)N(C)Cc1cc(N)ccc1Cl [Jun9-53-1] | 2.71 µM |  | IC50 (M^pro): > 20 µM |
| CN(Cc1cc(O)ccc1Cl)Cc1c(Cl)cccc1Cl [Jun9-29-4] |  | > 20 µM |  |
| CC(c1ccccc1F)N(C)Cc1cc(O)ccc1Cl (stereo not shown) [Jun9-29-7] | 42.9 µM |  |  |
| COc1ccc(Cl)c(CN(C)[C@H](C)c2ccccc2C)c1 [Jun9-25-4] | 49.3 µM |  |  |
| Cc1ccccc1[C@@H](C)N(C)Cc1cc(O)ccc1Cl [Jun9-25-5] |  |  | EC50 (SARS-CoV-2 [3]): 3.1 µM; CC50 [4]: 38.8 µM |
| C[C@H](c1cccc2ccccc12)N(C)Cc1cncn1C [ZX-136-5] | 8.32 µM |  |  |
| C[C@H](c1cccc2ccccc12)N(C)Cc1cnc(N)cc1N [Jun9-84-7] | 5.62 µM |  |  |

| Structure (SMILES) | IC50 (SARS-CoV-2 PL^pro; [6]) | IC50 (SARS-CoV-2 PL^pro) | other results |
| --- | --- | --- | --- |
| Cc1ccc(O)cc1C(=O)N[C@H](C)c1cccc2ccccc12 [Jun9-47-3] | 2.44 µM |  | IC50 (M^pro): > 20 µM |
| CC(C1CC(F)CCC1F)N(C)Cc1cc(O)ccc1Cl (stereo not shown) [Jun9-29-5] | > 20 µM |  |  |
| C[C@H](c1cccc2ccccc12)N(C)Cc1cccnc1 [ZX-136-2] | 9.29 µM |  |  |
| Cc1ccc(C(C)N(C)Cc2cc(O)ccc2Cl)cc1 (stereo not shown) [Jun9-13-8] | 71.8 µM |  |  |
| C[C@H](c1cccc2ccccc12)N(C)Cc1ccc(O)cc1Cl [Jun9-87-3] |  |  | SARS-CoV-2 PL^pro inhibition, in words (SARS-CoV-2 PL^pro): highly potent; CC50 (in vitro): 26 µM |
| C[C@H](c1cccc2ccccc12)N(C)Cc1ccc2c(c1)NC(=O)CO2 [Jun9-86-3] | 7.01 µM |  |  |
| C[C@H](c1cccc2ccccc12)N(C)C(=O)c1nccnc1N [ZX-129] | > 20 µM |  | IC50 (M^pro): > 20 µM |
| C[C@H](c1cccc2ccccc12)N(C)Cc1ccc(O)cc1 [Jun9-44-3] |  |  | SARS-CoV-2 PL^pro inhibition, in words (SARS-CoV-2 PL^pro): highly potent; EC50 (SARS-CoV-2 [1]): 8.32 µM; EC50 (SARS-CoV-2 [2]): 11.2 µM; CC50 [5]: 27.7 µM |
| C[C@H](c1cccc2ccccc12)N(C)Cc1ccc(-n2cccc2)cc1 [ZX-136-4] |  | > 20 µM |  |
| CC(c1cccc(O)c1)N(C)Cc1cc(O)ccc1Cl (stereo not shown) [Jun9-29-6] | 26.9 µM |  |  |
| Oc1ccc(Cl)c(CN2CCc3ccccc3C2)c1 [Jun9-44-5] |  | > 20 µM |  |
| C[C@H](c1cccc2ccccc12)N(C)Cc1ccc2cccc(O)c2c1 [Jun9-85-8] | > 20 µM |  |  |
| CC(C1CCCCC1)N(C)Cc1cc(O)ccc1Cl (stereo not shown) [Jun9-13-6] |  | > 20 µM |  |
| Cc1ccc(S(N)(=O)=O)cc1C(=O)N(C)C(C)c1ccc(Cl)c2ccccc12 (stereo not shown) [Jun 10-69-2] |  |  | SARS-CoV-2 PL^pro inhibition, in words (SARS-CoV-2 PL^pro): highly potent |
| C[C@H](c1cccc2ccccc12)N(C)Cc1cnccn1 [ZX-136-9] |  | > 20 µM |  |
| Cc1cc(O)cc(C)c1CN(C)[C@H](C)c1cccc2ccccc12 [Jun9-86-6] | 0.37 µM |  |  |
| CC1CCCCC1N(C)Cc1cc(O)ccc1Cl (stereo not shown) [Jun9-29-1] |  | > 20 µM |  |
| Cc1ccc(N)cc1CN(C)[C@H](C)c1cccc2ccccc12 [Jun9-53-2] |  |  | SARS-CoV-2 PL^pro inhibition, in words (SARS-CoV-2 PL^pro): highly potent; IC50 (M^pro): > 20 µM; EC50 (SARS-CoV-2 [1]): 8.89 µM; EC50 (SARS-CoV-2 [2]): 25.2 µM; CC50 [4]: 25.7 µM |
| C[C@@H](NC(=O)c1cc(O)ccc1Cl)c1cccc2ccccc12 [Jun9-47-2] | 6.72 µM |  | IC50 (M^pro): > 20 µM |
| CC(C)c1ccccc1N(C)Cc1cc(O)ccc1Cl [Jun9-29-3] |  | > 20 µM |  |
